Entries after “also recorded” stand apart in the source; their conditions may differ.
Assays:
[1] = tested on: wild-type yeast (strain Y46850); experiment: Growth of wild-type yeast in culture media containing an overlay oil (optical density); type: cell-based, S. cerevisiae
Experimental: The ability of yeast cells (S. cerevisiae) to grow normally in culture media containing an overlay oil was assessed. Wild-type yeast (strain Y46850) was cultured in the presence of soybean oil, sunflower oil, safflower oil, castor oil, or JARCOL™ I-16. Cell growth was measured by assessing the optical density (OD) of the yeast culture suspensions in three independent experiments (SF1, SF2, and SF3) (FIGS. 1-3).

[2] = Solubility of hexanoate in soybean oil by gas chromatography (GC-FID); details: oil or lipid
[3] = Visual assessment of CBDA solubility in overlay oils; type: physicochemical; details: CBDA as hemp oil with 50% CBDA, target concentration greater than 50 g/L
Experimental: Visual appearances of solutions containing CBDA (as hemp oil with 50% CBDA) were assessed for JARCOL™ I-16, soybean oil, castor oil, ESTEREX™ A 51, sunflower oil, DRAKEOL® 19, and DURASYN® 164. A target CBD concentration of greater than 50 g/L was desired for this set of experiments. Upon visual inspection, it was determined that CBDA was soluble in JARCOL™ I-16, soybean oil, castor oil, ESTEREX™ A 51, and sunflower oil, but was insoluble in DRAKEOL® 19 and DURASYN® 164 at the target concentration. Insolubility was evidenced by the presence of precipitates in solutions of DRAKEOL® 19 or DURASYN® 164 (FIG. 9).

[4] = oil/hemp oil 10:1 v/v, visual inspection
[5] = oil/hemp oil 10:1 v/v, visual inspection (precipitates)

SMILES: CCCCCCCCC(CO)CCCCCC (centres unmarked) [JARCOL™ I-16]
- Cell growth (optical density) versus control (no oil) ([1]; flask experiment SF2, strain Y46850 (FIG. 2)): not significantly different
- Cell growth (optical density) versus control (no oil) ([1]; flask experiment SF3, strain Y46850 (FIG. 3)): not significantly different
- Cell growth (optical density) versus control (no oil) ([1]; wild-type yeast strain Y46850 cultured with overlay oil, three independent experiments SF1, SF2, SF3): not significantly different

SMILES: CCCCCC(=O)O [hexanoate]
- solubility [2]: ≤ 185 mg/mL

SMILES: C=C(C)[C@@H]1CCC(C)=C[C@H]1c1c(O)cc(CCCCC)c(C(=O)O)c1O [CBDA, cannabidiolic acid]
- Solubility of CBDA in JARCOL I-16 [3, 4]: soluble; also recorded: good solubility
- Solubility of CBDA in castor oil [3, 4]: soluble; also recorded: good solubility
- Solubility of CBDA in soybean oil [3, 4]: soluble; also recorded: good solubility
- Solubility of CBDA in DRAKEOL 19 [3, 5]: insoluble; also recorded: lower solubility
- Solubility of CBDA in DURASYN 164 [3, 5]: insoluble; also recorded: lower solubility
- Solubility of CBDA in ESTEREX A 51 ([3]; visual inspection): soluble
- Solubility of CBDA in sunflower oil ([3]; visual inspection): soluble
